According to patent publication US9763445B2, “Safened herbicidal compositions comprising a pyridine carboxylic acid herbicide” (Dow AgroSciences, LLC, priority 2014, dated 2017):
Where two headings read alike, the source gives them in different places.

Columns and labels:
spring wheat (TRZAS) = experiment: Postemergence greenhouse trial, % visual injury on spring wheat; format: in vivo, Triticum aestivum
Method in brief: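 Postemergence greenhouse spray (187 L/ha, 1.5% v/v Agri-dex in water, acetone/DMSO stocks) on plants at second–third true leaf stage, ~23/22 °C, 14 h photoperiod; herbicides in g ae/ha, safener cloquintocet-mexyl in g ai/ha. Visual injury 0–100% versus solvent-blank controls after 20–22 d; Colby's equation gave expected mixture effects.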

winter rape (BRSNW) = experiment: Postemergence greenhouse trial, % visual injury on winter rape; format: in vivo, Brassica napus; conditions: Brassica napus, post-emergence, read-out: % visual injury, Ob; for plant injury at 4.38 g/ha: compound 4.380 g/ha
Method in brief: (§1)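 Plants at second or third true leaf stage, greenhouse-grown (14 h photoperiod, ~23/22° C.), sprayed postemergence with compounds alone or with safener cloquintocet-mexyl in 1.5% v/v Agri-dex crop oil at 187 L/ha. Visual injury scored 0–100% versus solvent-blank controls after 20-22 d; expected mixture effects by Colby's equation.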

lambsquarters (CHEAL) = experiment: Postemergence greenhouse trial, % visual injury on lambsquarters; format: in vivo, Chenopodium album; conditions: Chenopodium album, post-emergence, read-out: % visual injury, Ob
Method in brief: as §1

thistle (CIRAR) = experiment: Postemergence greenhouse trial, % visual injury on thistle; format: in vivo, Cirsium arvense; conditions: Cirsium arvense, post-emergence, read-out: % visual injury, Ob; for pest or weed control at 4.38 g/ha: compound 4.380 g/ha
Procedure: Seeds of the desired test plant species were planted in Sun Gro MetroMix® 306 planting mixture, which typically has a pH of 6.0 to 6.8 and an organic matter content of about 30 percent, in plastic pots with a surface area of 103.2 square centimeters (cm^2). When required to ensure good germination and healthy plants, a fungicide treatment and/or other chemical or physical treatment was applied. The plants were grown for 7-36 days (d) in a greenhouse with an approximate 14-hour (h) photoperiod which was maintained at about 23° C. during the day and 22° C. during the night. Nutrients and water were added on a regular basis and supplemental lighting was provided with overhead metal halide 1000-Watt lamps as necessary. The plants were employed for testing when they reached the second or third true leaf stage.
Weighed amounts of technical material were dissolved in a volume of 97:3 volume per volume (v/v) acetone/dimethyl sulfoxide (DMSO) to stock solutions. […] The concentrated stock solutions were diluted with an aqueous mixture of 1.5% v/v of Agri-dex crop oil concentrate to provide the appropriate application rates. Compound requirements are based upon a 12 milliliter (mL) application volume at a rate of 187 liters per hectare (L/ha). Stocks solutions of the safeners were prepared following the same procedure. Spray solutions of the safeners and experimental compound mixtures were prepared by adding the stock solutions to the appropriate amount of dilution solution to form a 12 mL spray solution in two-way combinations. Formulated compounds were applied to the plant material with an overhead Mandel track sprayer equipped with 8002E nozzles calibrated to deliver 187 L/ha over an application area of 0.503 square meters (m^2) at a spray height of 18 inches (43 centimeters (cm)) above average plant canopy. Control plants were sprayed in the same manner with the solvent blank. All herbicide application (component a) rates are in g ae/ha and all safener (component b) rates are in g ai/ha.
The treated plants and control plants were placed in a greenhouse as described above and watered by sub-irrigation to prevent wash-off of the test compounds. After 20-22 d, the condition of the test plants as compared with that of the control plants was determined visually and scored on a scale of 0 to 100 percent where 0 corresponds to no injury and 100 corresponds to complete kill. The condition of the test plants was compared with that of the control plants as determined visually and scored on a scale of 0 to 100 percent, where 0 corresponds to no injury and 100 corresponds to complete kill. Colby's equation was used to determine the herbicidal effects expected from the mixtures.
The safener cloquintocet-mexyl was combined with compound 1, compound 2, compound 4, compound 5, and compound 6, and applied to corn/maize (ZEAMX) and spring wheat (TRZAS) and the phytotoxicity of the herbicidal compositions was measured. In addition, the efficacy of the herbicidal composition on velvetleaf (ABUTH, Abutilon theophrasti), pigweed (AMARE, Amaranthus retroflexus), winter rape (BRSNW, Brassica napus), lambsquarters (CHEAL, Chenopodium album), thistle (CIRAR, Cirsium arvense), nutsedge (CYPES, Cyperus esculentus), poinsettia (EPHHL, Euphorbia heterophylla), wild buckwheat (POLCO, Polygonum convolvulus), giant foxtail (SETFA, Setaria faberi), and chickweed (STEME, Stellaria media) was evaluated. […]

common poppy (PAPRH) = experiment: Postemergence greenhouse trial, % visual injury on common poppy; format: in vivo, Papaver rhoeas; conditions: Papaver rhoeas, post-emergence, read-out: % visual injury, Ob
Method in brief: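 Herbicide rates g ae/ha, safener (cloquintocet-mexyl) rates g ai/ha; spray carrier 1.5% v/v crop oil concentrate, 187 L/ha, 2nd–3rd leaf stage. Rating: visual % injury at 20-22 d.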

[1] = TRZAS, compound 4.380 g/ha, CQC-m 0
[2] = TRZAS, compound 8.75 g/ha, CQC-m 0
[3] = TRZAS, compound 17.5 g/ha, CQC-m 0
[4] = TRZAS, compound 35 g/ha, CQC-m 0
[5] = TRZAS, compound 70 g/ha, CQC-m 0
[6] = BRSNW, compound 8.75 g/ha, CQC-m 0
[7] = BRSNW, compound 17.5 g/ha, CQC-m 0
[8] = BRSNW, compound 35 g/ha, CQC-m 0
[9] = BRSNW, compound 70 g/ha, CQC-m 0
[10] = CIRAR, compound 8.75 g/ha, CQC-m 0
[11] = CIRAR, compound 17.5 g/ha, CQC-m 0
[12] = CIRAR, compound 35 g/ha, CQC-m 0
[13] = CIRAR, compound 70 g/ha, CQC-m 0

CCCCOC(=O)c1nc(-c2ccc3cc[nH]c3c2F)c(F)c(N)c1Cl [compound 9]
% visual injury, Ob (spring wheat (TRZAS); [1]): 10%
% visual injury, Ob (spring wheat (TRZAS); [2]): 25%
% visual injury, Ob (spring wheat (TRZAS); [3]): 30%
% visual injury, Ob (spring wheat (TRZAS); [4]): 50%
% visual injury, Ob (spring wheat (TRZAS); [5]): 60%
plant injury at 4.38 g/ha (winter rape (BRSNW); BRSNW, CQC-m 0): 60%
plant injury at 8.75 g/ha (winter rape (BRSNW); [6]): 60%
plant injury at 17.5 g/ha (winter rape (BRSNW); [7]): 90%
plant injury at 35 g/ha (winter rape (BRSNW); [8]): 98%
plant injury at 70 g/ha (winter rape (BRSNW); [9]): 100%
pest or weed control at 4.38 g/ha (lambsquarters (CHEAL); CHEAL, compound 4.380 g/ha, CQC-m 0): 85%
pest or weed control at 8.75 g/ha (lambsquarters (CHEAL); CHEAL, compound 8.75 g/ha, CQC-m 0): 80%
pest or weed control at 17.5 g/ha (lambsquarters (CHEAL); CHEAL, compound 17.5 g/ha, CQC-m 0): 95%
pest or weed control at 35 g/ha (lambsquarters (CHEAL); CHEAL, compound 35 g/ha, CQC-m 0): 100%
pest or weed control at 70 g/ha (lambsquarters (CHEAL); CHEAL, compound 70 g/ha, CQC-m 0): 100%
pest or weed control at 4.38 g/ha (thistle (CIRAR); CIRAR, CQC-m 0): 10%
pest or weed control at 8.75 g/ha (thistle (CIRAR); [10]): 30%
pest or weed control at 17.5 g/ha (thistle (CIRAR); [11]): 70%
pest or weed control at 35 g/ha (thistle (CIRAR); [12]): 95%
pest or weed control at 70 g/ha (thistle (CIRAR); [13]): 97%
pest or weed control at 4.38 g/ha (common poppy (PAPRH); PAPRH, compound 4.380 g/ha, CQC-m 0): 90%
pest or weed control at 8.75 g/ha (common poppy (PAPRH); PAPRH, compound 8.75 g/ha, CQC-m 0): 87%
pest or weed control at 17.5 g/ha (common poppy (PAPRH); PAPRH, compound 17.5 g/ha, CQC-m 0): 100%
pest or weed control at 35 g/ha (common poppy (PAPRH); PAPRH, compound 35 g/ha, CQC-m 0): 93%
pest or weed control at 70 g/ha (common poppy (PAPRH); PAPRH, compound 70 g/ha, CQC-m 0): 100%

Nc1c(F)c(-c2ccc3cc[nH]c3c2F)nc(C(=O)O)c1Cl [compound 1]
% visual injury, Ob (spring wheat (TRZAS); alone, 4.375 g/ha): 13%
% visual injury, Ob (spring wheat (TRZAS); alone, 8.75 g/ha): 16%
% visual injury, Ob (spring wheat (TRZAS); alone, 17.5 g/ha): 31%
% visual injury, Ob (spring wheat (TRZAS); alone, 35 g/ha): 39%
% visual injury, Ob (spring wheat (TRZAS); alone, 70 g/ha): 51%
plant injury at 4.375 g/ha (winter rape (BRSNW); alone, 4.375 g/ha): 79%
plant injury at 8.75 g/ha (winter rape (BRSNW); alone, 8.75 g/ha): 84%
plant injury at 17.5 g/ha (winter rape (BRSNW); alone, 17.5 g/ha): 96%
plant injury at 35 g/ha (winter rape (BRSNW); alone, 35 g/ha): 99%
plant injury at 70 g/ha (winter rape (BRSNW); alone, 70 g/ha): 100%
pest or weed control at 4.375 g/ha (lambsquarters (CHEAL); alone, 4.375 g/ha): 86%
pest or weed control at 8.75 g/ha (lambsquarters (CHEAL); alone, 8.75 g/ha): 95%
pest or weed control at 17.5 g/ha (lambsquarters (CHEAL); alone, 17.5 g/ha): 99%
pest or weed control at 35 g/ha (lambsquarters (CHEAL); alone, 35 g/ha): 100%
pest or weed control at 70 g/ha (lambsquarters (CHEAL); alone, 70 g/ha): 100%
pest or weed control at 4.375 g/ha (thistle (CIRAR); alone): 35%
pest or weed control at 8.75 g/ha (thistle (CIRAR); alone, 8.75 g/ha): 62%
pest or weed control at 17.5 g/ha (thistle (CIRAR); alone, 17.5 g/ha): 80%
pest or weed control at 35 g/ha (thistle (CIRAR); alone, 35 g/ha): 90%
pest or weed control at 70 g/ha (thistle (CIRAR); alone, 70 g/ha): 96%
pest or weed control at 4.375 g/ha (common poppy (PAPRH); alone): 97%
pest or weed control at 8.75 g/ha (common poppy (PAPRH); alone, 8.75 g/ha): 99%
pest or weed control at 17.5 g/ha (common poppy (PAPRH); alone, 17.5 g/ha): 100%
pest or weed control at 35 g/ha (common poppy (PAPRH); alone, 35 g/ha): 100%
pest or weed control at 70 g/ha (common poppy (PAPRH); alone, 70 g/ha): 100%

Nc1c(F)c(-c2ccc3ccoc3c2)nc(C(=O)O)c1Cl [compound 20]
% visual injury, Ob (spring wheat (TRZAS); TRZAS, 4.375 g/ha, applied alone): 0%
% visual injury, Ob (spring wheat (TRZAS); TRZAS, 8.75 g/ha, applied alone): 0%
% visual injury, Ob (spring wheat (TRZAS); TRZAS, 17.5 g/ha, applied alone): 0%
% visual injury, Ob (spring wheat (TRZAS); TRZAS, 35 g/ha, applied alone): 10%
% visual injury, Ob (spring wheat (TRZAS); TRZAS, 70 g/ha, applied alone): 20%
pest or weed control at 4.375 g/ha (thistle (CIRAR); CIRAR, applied alone): 0%
pest or weed control at 8.75 g/ha (thistle (CIRAR); CIRAR, 8.75 g/ha, applied alone): 10%
pest or weed control at 17.5 g/ha (thistle (CIRAR); CIRAR, 17.5 g/ha, applied alone): 20%
pest or weed control at 35 g/ha (thistle (CIRAR); CIRAR, 35 g/ha, applied alone): 40%
pest or weed control at 70 g/ha (thistle (CIRAR); CIRAR, 70 g/ha, applied alone): 70%
pest or weed control at 4.375 g/ha (common poppy (PAPRH); PAPRH, applied alone): 85%
pest or weed control at 8.75 g/ha (common poppy (PAPRH); PAPRH, 8.75 g/ha, applied alone): 85%
pest or weed control at 17.5 g/ha (common poppy (PAPRH); PAPRH, 17.5 g/ha, applied alone): 95%
pest or weed control at 35 g/ha (common poppy (PAPRH); PAPRH, 35 g/ha, applied alone): 100%
pest or weed control at 70 g/ha (common poppy (PAPRH); PAPRH, 70 g/ha, applied alone): 95%

CO/C=N/c1c(F)c(-c2ccc3cc[nH]c3c2F)nc(C(=O)OC)c1Cl [compound 10]
% visual injury, Ob (spring wheat (TRZAS); [1]): 10%
% visual injury, Ob (spring wheat (TRZAS); [2]): 25%
% visual injury, Ob (spring wheat (TRZAS); [3]): 40%
% visual injury, Ob (spring wheat (TRZAS); [4]): 60%
% visual injury, Ob (spring wheat (TRZAS); [5]): 70%
plant injury at 4.38 g/ha (winter rape (BRSNW); BRSNW, CQC-m 0): 85%
plant injury at 8.75 g/ha (winter rape (BRSNW); [6]): 95%
plant injury at 17.5 g/ha (winter rape (BRSNW); [7]): 100%
plant injury at 35 g/ha (winter rape (BRSNW); [8]): 100%
plant injury at 70 g/ha (winter rape (BRSNW); [9]): 100%
pest or weed control at 4.38 g/ha (thistle (CIRAR); CIRAR, CQC-m 0): 30%
pest or weed control at 8.75 g/ha (thistle (CIRAR); [10]): 40%
pest or weed control at 17.5 g/ha (thistle (CIRAR); [11]): 60%
pest or weed control at 35 g/ha (thistle (CIRAR); [12]): 85%
pest or weed control at 70 g/ha (thistle (CIRAR); [13]): 100%
